Values quoted from earlier work in patent US20070028930A1, “Active agent and formulations to minimize or alleviate bladder urgency and irritation and/or to enhance sexual function” (Delithe Natural Products Inc., priority 2005, published 2007).

Tested on: bladder
Conditions: 10 mg/kg dose, rats

## CNCC[C@H](Oc1cccc2ccccc12)c1cccs1 [Duloxetine]
  efficacy in in vivo bladder studies: effective
